Source: patent US6426355B1, “Heterocyclic carboxamide-containing thiourea inhibitors of herpes viruses containing phenylenediamine group” (American Home Products, priority 1998, dated 2002)
Values after ≈ are worked out from the molar mass of the structure shown.

How the values were obtained:
[1] = tested on: HCMV recombinant mutant virus (RV145); test: HCMV microtiter plate assay (beta-glucuronidase reporter); assay type: cell-based, Human Cytomegalovirus; conditions: for IC50 (ug/ml) HCMV: HCMV in human foreskin fibroblasts; for IC50: Human betaherpesvirus 5, Fibroblast, read-out: IC50 (ug/ml) HCMV
How it was run: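 Replication was read out as virus-encoded β-glucuronidase activity, measured with a chromogenic or fluorogenic glucuronide substrate in cell lysates at 96 h post-infection. Infection of human foreskin fibroblasts with RV145 took place with compound present. IC50 was derived from a range of inhibitor amounts.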

HSV-1 = test: HSV Antiviral (ELISA) assay; assay type: cell-based; conditions: for IC50 (ug/ml) HSV: HSV-1 in Vero cells; for IC50: Human alphaherpesvirus 1, HSV-1 in Vero cells, read-out: IC50 (ug/ml) HSV
Protocol: Vero cells (ATCC #CCL-81) are plated on 96-well tissue culture plates at 3.5×10^4 cells per 100 μl tissue culture DMEM (Dulbecco's modified Eagle media) supplemented with 2% fetal bovine serum (FBS) in each well. After overnight incubation @ 37° C. (in 5% CO2) and 30 minutes prior to infection with HSV-1 (multiplicity of infection equal to 0.006), cells are either untreated, or treated with test compound (multiple concentrations) or reference standard drug control. After approximately 24 hours post-infection incubation @ 37° C. (in 5% CO2), cells are fixed for ELISA assay. The primary antibody is murine anti-HSV glycoprotein D monoclonal primary antibody and the secondary antibody is goat anti-mouse IgG linked to β-galactosidase. Thus the extent of viral replication is determined by assessing β-galactosidase activity by quantifying the generation of the 4-methyl umbelliferone fluorescent cleavage product after addition of the methyl umbelliferyl-β-D-galactoside (Sigma #M1633) substrate on a microfluorimeter (365 nm for excitation and 450 nm for emission). Antiviral activity (IC50) of the test compound is determined by comparing the flourescence obtained in absence of compound to that obtained in the presence of compound.

| Compound | IC50 (ug/ml) HCMV [1] [µg/mL] | IC50 (ug/ml) HSV (HSV-1) [µg/mL] | IC50 [1] [µg/mL] | IC50 (HSV-1) [µg/mL] |
| --- | --- | --- | --- | --- |
| O=C(Nc1ccc(NC(=S)NCCc2c(Cl)cccc2Cl)cc1)c1csnn1 [Example 709] | 0.05 (≈ 0.111 µM) | >10 | – | – |
| O=C(Nc1ccc(NC(=S)NCCSc2ccc(Cl)c(Cl)c2)cc1)c1csnn1 [Example 710] | 0.006 (≈ 0.0124 µM) | >10 | – | – |
| O=C(Nc1ccc(NC(=S)NCCSc2cc(C(F)(F)F)ccc2F)cc1)c1csnn1 [Example 711] | 0.004 (≈ 0.00798 µM) | >10 | – | – |
| CCc1ccc(CCNC(=S)Nc2ccc(NC(=O)c3csnn3)cc2)cc1 [Example 713] | 0.009 (≈ 0.0219 µM) | >10 | – | – |
| O=C(Nc1ccc(NC(=S)Nc2ccc(Cl)c(C(F)(F)F)c2)cc1)c1cocn1 [Example 714] | 0.02 (≈ 0.0454 µM) | >10 | – | – |
| O=C(Nc1ccc(NC(=S)Nc2cc(C(F)(F)F)cc(C(F)(F)F)c2)cc1)c1cocn1 [Example 715] | 0.03 (≈ 0.0632 µM) | >10 | – | – |
| O=C(Nc1ccc(NC(=S)NCCc2ccc(F)c(F)c2)cc1)c1csnn1 [Example 716] | 0.01 (≈ 0.0238 µM) | >10 | – | – |
| O=C(Nc1ccc(NC(=S)NCCc2ccc(C(F)(F)F)cc2)cc1)c1csnn1 [Example 717] | 0.003 (≈ 0.00664 µM) | >10 | – | – |
| O=C(Nc1ccc(NC(=S)NCCc2ccc(Cl)c(Cl)c2)cc1)c1ccco1 [Example 718] | 0.02 (≈ 0.046 µM) | 6 (≈ 13.8 µM) | – | – |
| O=C(Nc1ccc(NC(=S)NCCc2cc(F)cc(F)c2)cc1)c1csnn1 [Example 720] | 0.01 (≈ 0.0238 µM) | >10 | – | – |
| O=C(Nc1ccc(NC(=S)NCCc2ccc([N+](=O)[O-])cc2)cc1)c1csnn1 [Example 722] | 0.015 (≈ 0.035 µM) | >10 | – | – |
| CC(Cc1ccccc1)NC(=S)Nc1ccc(NC(=O)c2csnn2)cc1 (stereo not drawn) [Example 723] | 0.03 (≈ 0.0755 µM) | >10 | – | – |
| O=C(Nc1ccc(NC(=S)NCc2cccc(C(F)(F)F)c2)cc1)c1csnn1 [Example 731] | 0.007 (≈ 0.016 µM) | >10 | – | – |
| O=C(Nc1ccc(NC(=S)NCCOc2cccc(Br)c2)cc1)c1csnn1 [Example 734] | 0.009 (≈ 0.0188 µM) | >10 | – | – |
| O=C(Nc1ccc(NC(=S)NCCOc2cc(C(F)(F)F)ccc2F)cc1)c1csnn1 [Example 737] | 0.005 (≈ 0.0103 µM) | >10 | – | – |
| O=C(Nc1ccc(NC(=S)NCCc2ccccc2F)cc1)c1ccco1 [Example 738] | 0.11 (≈ 0.287 µM) | >10 | – | – |
| O=C(Nc1ccc(NC(=S)Nc2ccc(Br)cc2)cc1)c1csnn1 [Example 739] | 0.02 (≈ 0.046 µM) | >10 | – | – |

| Compound | IC50 (ug/ml) HCMV [1] [µg/mL] | IC50 (ug/ml) HSV (HSV-1) [µg/mL] | IC50 [1] [µg/mL] | IC50 (HSV-1) [µg/mL] |
| --- | --- | --- | --- | --- |
| O=C(Nc1ccc(NC(=S)NCc2ccc(F)cc2)cc1)c1csnn1 [Example 741] | 0.02 (≈ 0.0516 µM) | >10 | – | – |
| O=C(Nc1ccc(NC(=S)NCc2ccc(Cl)cc2)cc1)c1csnn1 [Example 742] | 0.009 (≈ 0.0223 µM) | >10 | – | – |
| O=C(Nc1ccc(NC(=S)NCc2ccc(Br)cc2)cc1)c1csnn1 [Example 743] | 0.09 (≈ 0.201 µM) | >10 | – | – |
| O=C(Nc1ccc(NC(=S)NCc2ccc(Cl)c(Cl)c2)cc1)c1cscn1 [Example 745] | 0.0025 (≈ 0.00572 µM) | 9 (≈ 20.6 µM) | – | – |
| O=C(Nc1ccc(NC(=S)NCc2cc(C(F)(F)F)ccc2F)cc1)c1cscn1 [Example 746] | 0.005 (≈ 0.011 µM) | >10 | – | – |
| CC(C)(C)c1ccc(CNC(=S)Nc2ccc(NC(=O)c3cscn3)cc2)cc1 [Example 747] | 0.002 (≈ 0.00471 µM) | >10 | – | – |
| O=C(Nc1ccc(NC(=S)Nc2ccccc2F)cc1)c1csnn1 [Example 748] | 0.28 (≈ 0.75 µM) | >10 | – | – |
| O=C(Nc1ccc(NC(=S)NCCOc2cccc(I)c2)cc1)c1csnn1 [Example 750] | 0.01 (≈ 0.019 µM) | >10 | – | – |
| O=C(Nc1ccc(NC(=S)NCCc2ccc(F)c(C(F)(F)F)c2)cc1)c1csnn1 [Example 764] | 0.004 (≈ 0.00852 µM) | >10 | – | – |
| O=C(Nc1ccc(NC(=S)NCCc2cccc(C(F)(F)F)c2F)cc1)c1csnn1 [Example 766] | 0.006 (≈ 0.0128 µM) | >10 | – | – |
| O=C(Nc1ccc(NC(=S)NCCc2cccc(I)c2)cc1)c1csnn1 [Example 768] | 0.005 (≈ 0.00982 µM) | >10 | – | – |
| O=C(Nc1ccc(NC(=S)NCCc2ccc(F)cc2C(F)(F)F)cc1)c1csnn1 [Example 769] | 0.04 (≈ 0.0852 µM) | >10 | – | – |
| O=C(Nc1ccc(NC(=S)NCCc2cccc(Br)c2)cc1)c1csnn1 [Example 770] | 0.006 (≈ 0.013 µM) | >10 | – | – |
| O=C(Nc1ccc(NC(=S)Nc2ccccc2Cl)cc1)c1ccccc1F [Example 998, N-{4-[3-(2-Chloro-phenyl)-thioureido]-phenyl}-2-fluoro-benzamide] | – | – | 0.016 (≈ 0.04 µM) | > 10 |
| COC(=O)c1cccc(NC(=S)Nc2ccc(NC(=O)c3ccccc3F)cc2)c1 [Example 1000, 3-{3-[4-(2-Fluoro-benzoylamino)-phenyl]-thioureido}-benzoic acid methyl ester] | – | – | 0.39 (≈ 0.921 µM) | > 10 |
| NC(=O)c1cccc(NC(=S)Nc2ccc(NC(=O)c3ccccc3F)cc2)c1 [Example 1002, N-[4-[[[[3-(Aminocarbonyl)phenyl]-amino]thioxomethyl]amino]phenyl]-2-fluoro-benzamide] | – | – | 0.07 (≈ 0.171 µM) | > 10 |
